# Measured values published in ChEMBL document CHEMBL4334438, “Discovery of novel glycogen synthase kinase-3α inhibitors: Structure-based virtual screening, preliminary SAR and biological evaluation for treatment of acute myeloid leukemia” (Eur J Med Chem, 2019).
# Key:
# [1] = system: Tyrosine-protein kinase ABL1 (Homo sapiens), P00519 [M351T]; experiment: Inhibition of human ABL1 M351T mutant (27 to end residues) assessed as residual activity at 1 uM using EAIYAAPFAKKK as substrate incubated for 40 mins in presence of [gamma-33ATP] by scintillation counting based radiometry assay relative to control
# [2] = target: Cytoplasmic tyrosine-protein kinase BMX (Homo sapiens) (UniProt P51813); experiment: Inhibition of recombinant full length human BMX assessed as residual activity at 1 uM using poly(Glu, Tyr) 4:1 as substrate incubated for 40 mins in presence of [gamma-33ATP] by scintillation counting based radiometry assay relative to control
# [3] = target: Serine/threonine-protein kinase B-raf (Homo sapiens) (UniProt P15056); experiment: Inhibition of recombinant full length human B-Raf (416 to end residues) assessed as residual activity at 1 uM using myelin basic protein substrate incubated for 40 mins in presence of [gamma-33ATP] by scintillation counting based radiometry assay relative to control
# [4] = target: Cyclin-dependent kinase-like 2 (Homo sapiens) (UniProt Q92772); experiment: Inhibition of recombinant full length human CDKL2 assessed as residual activity at 1 uM in presence of [gamma-33ATP] by scintillation counting based radiometry assay relative to control
# [5] = target: Cyclin-dependent kinase-like 3 (Homo sapiens) (UniProt Q8IVW4); experiment: Inhibition of recombinant full length human CDKL3 assessed as residual activity at 1 uM using RRRFRPASPLRGPPK as substrate incubated for 120 mins in presence of [gamma-33ATP] by scintillation counting based radiometry assay relative to control
# [6] = target: Casein kinase I isoform gamma-2 (Homo sapiens) (UniProt P78368); experiment: Inhibition of recombinant human CK1gamma2 (18 to end residues) assessed as residual activity at 1 uM using KRRRALS(p)VASLPGL as substrate incubated for 40 mins in presence of [gamma-33ATP] by scintillation counting based radiometry assay relative to control
# [7] = target: Proto-oncogene tyrosine-protein kinase Src (Homo sapiens) (UniProt P12931); experiment: Inhibition of recombinant human C-Src assessed as residual activity at 1 uM KVEKIGEGTYGVV as substrate incubated 40 mins in presence of [gamma-33ATP] by scintillation counting based radiometry assay relative to control
# [8] = target: Serine/threonine-protein kinase DCLK2 (Homo sapiens) (UniProt Q8N568); experiment: Inhibition of recombinant human DCAMKL2 (376 to end residues) assessed as residual activity at 1 uM using KKLNRTLSFAEPG as substrate at 40 mins in presence of [gamma-33ATP] by scintillation counting based radiometry assay relative to control
# [9] = target: Tyrosine-protein kinase Fes/Fps (Homo sapiens) (UniProt P07332); experiment: Inhibition of recombinant human FES (2 to end residues) assessed as residual activity at 1 uM using poly(Glu, Tyr) 4:1 as substrate at 40 mins in presence of [gamma-33ATP] by scintillation counting based radiometry assay relative to control
# [10] = system: Macrophage colony-stimulating factor 1 receptor (Homo sapiens), P07333 [Y969C]; experiment: Inhibition of recombinant human FMS Y969C mutant (538 to end residues) assessed as residual activity at 1 uM using EEEEYEEEEEEYYIIEEEEEEYEEEEEEYYEEEEEEKKKK as substrate at 40 mins in presence of [gamma-33ATP] by scintillation counting based radiometry assay relative to control
# [11] = target: Tyrosine-protein kinase Fyn (Homo sapiens) (UniProt P06241); experiment: Inhibition of recombinant full length human Fyn assessed as residual activity at 1 uM using KVEKIGEGTYGVVYK as substrate at 40 mins in presence of [gamma-33ATP] by scintillation counting based radiometry assay relative to control
# [12] = target: G protein-coupled receptor kinase 5 (Homo sapiens) (UniProt P34947); experiment: Inhibition of recombinant full length human GRK5 assessed as residual activity at 1 uM using casein as substrate at 40 mins in presence of [gamma-33ATP] by scintillation counting based radiometry assay relative to control
# [13] = target: Serine/threonine-protein kinase ICK (Homo sapiens) (UniProt Q9UPZ9); experiment: Inhibition of human ICK (1 to 312 residues) assessed as residual activity at 1 uM using RRRFRPASPLRGPPK as substrate after 40 mins by [gamma-33ATP] radiometric assay relative to control
# [14] = system: Protein kinase C eta type (Homo sapiens), P24723 [UNDEFINED MUTATION]; experiment: Inhibition of recombinant human PKCeta V108L/G109R/L392Q mutant (2 to end residues) assessed as residual activity at 1 uM using ERMRPRKRQGSVRRRV as substrate incubated for 40 mins in presence of [gamma33P]ATP by scintillation counting based radiometry assay relative to control
# [15] = target: cAMP-dependent protein kinase catalytic subunit PRKX (Homo sapiens) (UniProt P51817); experiment: Inhibition of recombinant human full length PrKX assessed as residual activity at 1 uM using RRRLSFAEPG as substrate measured after 40 mins in presence of [gamma33P]ATP by scintillation counting method relative to control
# [16] = system: Serine/threonine-protein kinase Sgk2 (Homo sapiens), Q9HBY8 [S416D]; experiment: Inhibition of recombinant human SGK2 S416D mutant (54 to end residues) assessed as residual activity at 1 uM using GRPRTSSFAEGKK as substrate measured after 40 mins in presence of [gamma33P]ATP by scintillation counting method relative to control
# [17] = target: Serine/threonine-protein kinase 33 (Homo sapiens) (UniProt Q9BYT3); experiment: Inhibition of recombinant full-length human STK33 at 1 uM assessed as residual activity at 1 uM using myelin basic protein as substrate measured after 40 mins in presence of [gamma33P]ATP by scintillation counting method relative to control
# [18] = target: Tyrosine-protein kinase SYK (Homo sapiens) (UniProt P43405); experiment: Inhibition of recombinant full-length human Syk at 1 uM assessed as residual activity at 1 uM using poly(Glu, Tyr) 4:1 as substrate measured after 120 mins in presence of [gamma33P]ATP by scintillation counting method relative to control
# [19] = target: Serine/threonine-protein kinase tousled-like 2 (Homo sapiens) (UniProt Q86UE8); experiment: Inhibition of human TLK2 (387 to end residues) assessed as residual activity at 1 uM using casein as substrate measured after 40 mins in presence of [gamma33P]ATP by scintillation counting method relative to control
# [20] = system: Casein kinase II subunit alpha' (CSNK2A2); experiment: Inhibition of recombinant full length human CK2alpha2 assessed as residual activity at 1 uM using RRRDDDSDDD as substrate incubated 40 mins in presence of [gamma-33ATP] by scintillation counting based radiometry assay relative to control
# [21] = system: Mitogen-activated protein kinase kinase kinase 10 (MLK2); experiment: Inhibition of recombinant human MLK2 (1 to 499 residues) assessed as residual activity at 1 uM using myelin basic protein as substrate incubated for 40 mins in presence of [gamma-33ATP by scintillation counting based radiometry assay relative to control
# Sequence of Serine/threonine-protein kinase ICK (Homo sapiens) (Q9UPZ9 whole entry, the tested form may be a part): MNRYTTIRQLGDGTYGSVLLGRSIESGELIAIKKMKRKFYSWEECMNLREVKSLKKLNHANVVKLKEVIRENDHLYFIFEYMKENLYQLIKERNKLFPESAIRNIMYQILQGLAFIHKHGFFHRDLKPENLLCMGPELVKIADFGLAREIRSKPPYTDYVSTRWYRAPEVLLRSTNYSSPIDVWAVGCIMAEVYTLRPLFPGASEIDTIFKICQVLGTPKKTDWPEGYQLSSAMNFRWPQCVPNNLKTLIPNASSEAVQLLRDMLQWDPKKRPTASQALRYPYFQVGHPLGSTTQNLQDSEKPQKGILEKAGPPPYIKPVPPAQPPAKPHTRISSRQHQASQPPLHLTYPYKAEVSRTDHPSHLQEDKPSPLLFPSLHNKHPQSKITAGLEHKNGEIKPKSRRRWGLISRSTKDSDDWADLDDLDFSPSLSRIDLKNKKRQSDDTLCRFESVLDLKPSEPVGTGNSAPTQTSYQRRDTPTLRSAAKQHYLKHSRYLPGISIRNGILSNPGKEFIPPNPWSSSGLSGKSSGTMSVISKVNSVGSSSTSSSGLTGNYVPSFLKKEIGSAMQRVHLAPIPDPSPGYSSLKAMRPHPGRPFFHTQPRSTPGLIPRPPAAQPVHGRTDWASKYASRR
# Sequence of Protein kinase C eta type (Homo sapiens), P24723 [UNDEFINED MUTATION] (P24723 whole entry, looked up, stated change not applied): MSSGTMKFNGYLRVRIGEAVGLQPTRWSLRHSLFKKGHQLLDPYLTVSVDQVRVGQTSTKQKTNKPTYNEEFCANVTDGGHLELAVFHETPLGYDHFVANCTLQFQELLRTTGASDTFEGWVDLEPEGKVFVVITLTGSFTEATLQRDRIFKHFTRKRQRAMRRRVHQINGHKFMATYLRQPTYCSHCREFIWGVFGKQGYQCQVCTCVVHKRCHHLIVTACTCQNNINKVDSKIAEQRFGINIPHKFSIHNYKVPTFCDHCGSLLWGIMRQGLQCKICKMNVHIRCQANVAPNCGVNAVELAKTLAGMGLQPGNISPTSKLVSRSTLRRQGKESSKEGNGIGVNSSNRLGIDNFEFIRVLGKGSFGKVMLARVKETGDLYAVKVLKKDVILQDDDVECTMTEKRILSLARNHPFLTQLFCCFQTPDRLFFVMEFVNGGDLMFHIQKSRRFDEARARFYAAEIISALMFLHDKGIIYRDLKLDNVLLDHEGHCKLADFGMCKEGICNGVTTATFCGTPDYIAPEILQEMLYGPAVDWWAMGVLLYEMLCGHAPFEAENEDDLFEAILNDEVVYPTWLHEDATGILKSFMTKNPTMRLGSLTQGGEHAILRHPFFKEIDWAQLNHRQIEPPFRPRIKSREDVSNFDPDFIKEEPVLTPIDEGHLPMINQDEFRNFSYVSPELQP
# Sequence of Proto-oncogene tyrosine-protein kinase Src (Homo sapiens) (P12931 2-536 limits assumed): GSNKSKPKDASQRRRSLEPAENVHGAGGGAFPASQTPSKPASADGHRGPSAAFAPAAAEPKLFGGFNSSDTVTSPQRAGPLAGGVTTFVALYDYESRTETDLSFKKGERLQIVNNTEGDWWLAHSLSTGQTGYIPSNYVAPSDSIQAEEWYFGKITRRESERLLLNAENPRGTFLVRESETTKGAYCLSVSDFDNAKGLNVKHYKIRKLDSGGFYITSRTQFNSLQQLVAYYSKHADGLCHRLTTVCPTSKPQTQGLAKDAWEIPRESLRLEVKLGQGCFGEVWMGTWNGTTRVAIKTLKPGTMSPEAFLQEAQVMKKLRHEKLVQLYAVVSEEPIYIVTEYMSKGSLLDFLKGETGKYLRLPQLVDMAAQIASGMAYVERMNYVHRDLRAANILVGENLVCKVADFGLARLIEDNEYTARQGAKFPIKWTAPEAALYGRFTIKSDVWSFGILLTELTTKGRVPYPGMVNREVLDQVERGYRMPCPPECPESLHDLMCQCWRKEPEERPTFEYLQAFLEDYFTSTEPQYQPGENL
# Sequence of Serine/threonine-protein kinase B-raf (Homo sapiens) (P15056 whole entry): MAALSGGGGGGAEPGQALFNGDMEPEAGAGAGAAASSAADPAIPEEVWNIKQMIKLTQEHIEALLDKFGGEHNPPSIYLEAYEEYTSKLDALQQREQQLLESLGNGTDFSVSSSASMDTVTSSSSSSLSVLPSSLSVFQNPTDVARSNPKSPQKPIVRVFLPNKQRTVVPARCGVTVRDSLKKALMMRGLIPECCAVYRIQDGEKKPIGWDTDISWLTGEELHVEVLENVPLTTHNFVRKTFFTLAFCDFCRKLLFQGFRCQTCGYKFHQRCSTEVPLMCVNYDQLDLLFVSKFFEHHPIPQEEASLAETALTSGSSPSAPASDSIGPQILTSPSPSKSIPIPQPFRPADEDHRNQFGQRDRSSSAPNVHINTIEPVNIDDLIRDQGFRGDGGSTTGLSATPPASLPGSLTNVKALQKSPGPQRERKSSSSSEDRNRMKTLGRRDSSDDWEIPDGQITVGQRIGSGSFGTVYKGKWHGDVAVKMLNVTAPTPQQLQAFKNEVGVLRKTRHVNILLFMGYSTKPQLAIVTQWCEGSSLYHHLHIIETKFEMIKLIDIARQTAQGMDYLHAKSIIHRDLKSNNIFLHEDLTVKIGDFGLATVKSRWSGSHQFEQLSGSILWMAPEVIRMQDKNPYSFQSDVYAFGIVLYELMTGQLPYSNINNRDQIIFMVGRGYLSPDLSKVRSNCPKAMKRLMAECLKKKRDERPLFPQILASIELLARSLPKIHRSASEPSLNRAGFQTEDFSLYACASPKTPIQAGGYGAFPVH
# Sequence of Cyclin-dependent kinase-like 2 (Homo sapiens) (Q92772 whole entry): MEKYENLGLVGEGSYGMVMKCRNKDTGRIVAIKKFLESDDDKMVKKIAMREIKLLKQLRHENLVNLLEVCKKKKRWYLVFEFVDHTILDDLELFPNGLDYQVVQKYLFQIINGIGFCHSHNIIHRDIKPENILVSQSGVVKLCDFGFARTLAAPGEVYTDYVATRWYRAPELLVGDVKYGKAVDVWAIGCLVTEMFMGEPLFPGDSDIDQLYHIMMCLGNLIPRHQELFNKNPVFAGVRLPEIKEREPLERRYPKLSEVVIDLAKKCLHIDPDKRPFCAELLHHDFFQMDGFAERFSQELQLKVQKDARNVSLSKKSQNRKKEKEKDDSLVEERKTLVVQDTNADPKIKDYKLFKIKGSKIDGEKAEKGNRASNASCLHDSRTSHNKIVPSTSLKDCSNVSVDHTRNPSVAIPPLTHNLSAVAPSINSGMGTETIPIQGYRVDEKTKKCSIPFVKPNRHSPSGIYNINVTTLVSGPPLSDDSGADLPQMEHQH
# Sequence of Tyrosine-protein kinase Fes/Fps (Homo sapiens) (P07332 whole entry): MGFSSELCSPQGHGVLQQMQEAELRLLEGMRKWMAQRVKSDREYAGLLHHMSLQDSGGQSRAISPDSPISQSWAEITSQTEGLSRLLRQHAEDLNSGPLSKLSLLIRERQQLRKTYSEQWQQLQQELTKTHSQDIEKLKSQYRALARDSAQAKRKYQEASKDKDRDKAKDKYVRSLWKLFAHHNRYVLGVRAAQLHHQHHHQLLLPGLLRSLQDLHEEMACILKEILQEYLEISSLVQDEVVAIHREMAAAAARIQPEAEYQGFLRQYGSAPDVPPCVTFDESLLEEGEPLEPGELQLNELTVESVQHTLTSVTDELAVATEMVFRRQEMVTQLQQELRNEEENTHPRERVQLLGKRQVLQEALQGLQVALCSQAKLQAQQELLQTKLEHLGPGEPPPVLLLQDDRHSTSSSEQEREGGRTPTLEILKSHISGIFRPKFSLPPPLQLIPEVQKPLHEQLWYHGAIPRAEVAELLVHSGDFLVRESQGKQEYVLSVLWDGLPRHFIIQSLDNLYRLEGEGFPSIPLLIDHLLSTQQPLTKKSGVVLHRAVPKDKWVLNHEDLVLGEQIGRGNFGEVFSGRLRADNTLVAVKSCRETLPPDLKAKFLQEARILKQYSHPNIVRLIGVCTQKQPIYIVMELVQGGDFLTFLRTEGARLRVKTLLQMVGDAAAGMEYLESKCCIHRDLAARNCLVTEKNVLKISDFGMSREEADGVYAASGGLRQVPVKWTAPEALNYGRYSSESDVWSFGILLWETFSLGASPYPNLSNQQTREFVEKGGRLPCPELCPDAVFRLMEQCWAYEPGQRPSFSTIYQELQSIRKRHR
# Sequence of cAMP-dependent protein kinase catalytic subunit PRKX (Homo sapiens) (P51817 whole entry): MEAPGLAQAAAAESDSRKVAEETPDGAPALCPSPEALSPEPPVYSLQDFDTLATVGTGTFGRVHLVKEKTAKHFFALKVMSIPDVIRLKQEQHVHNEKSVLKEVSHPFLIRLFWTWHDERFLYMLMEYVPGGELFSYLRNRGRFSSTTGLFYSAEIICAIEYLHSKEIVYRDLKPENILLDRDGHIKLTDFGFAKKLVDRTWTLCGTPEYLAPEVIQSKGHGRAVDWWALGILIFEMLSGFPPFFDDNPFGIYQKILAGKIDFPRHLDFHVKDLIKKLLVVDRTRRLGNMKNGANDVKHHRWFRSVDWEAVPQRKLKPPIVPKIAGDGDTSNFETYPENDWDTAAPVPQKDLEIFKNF
# Sequence of Serine/threonine-protein kinase 33 (Homo sapiens) (Q9BYT3 whole entry, looked up): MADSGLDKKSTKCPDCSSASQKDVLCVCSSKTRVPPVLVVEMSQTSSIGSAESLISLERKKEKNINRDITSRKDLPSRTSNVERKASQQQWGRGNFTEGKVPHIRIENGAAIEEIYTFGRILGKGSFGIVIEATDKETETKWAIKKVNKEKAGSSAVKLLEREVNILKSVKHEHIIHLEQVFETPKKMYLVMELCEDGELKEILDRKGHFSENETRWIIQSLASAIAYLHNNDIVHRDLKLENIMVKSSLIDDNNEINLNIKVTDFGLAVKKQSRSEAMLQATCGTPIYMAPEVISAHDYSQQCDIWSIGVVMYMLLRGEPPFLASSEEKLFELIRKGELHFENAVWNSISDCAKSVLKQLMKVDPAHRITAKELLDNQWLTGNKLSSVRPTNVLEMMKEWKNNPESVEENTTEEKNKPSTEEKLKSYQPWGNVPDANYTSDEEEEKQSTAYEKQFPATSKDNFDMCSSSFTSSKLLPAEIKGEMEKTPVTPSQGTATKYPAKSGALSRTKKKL
smiles,measurement,setting,value
N=C1NC(=O)/C(=C\c2ccc(-c3cccc([N+](=O)[O-])c3)o2)S1,Activity,[1],97%
same,Activity,[2],101%
same,Activity,[3],97%
same,Activity,[4],74%
same,Activity,[5],54%
same,Activity,[6],98%
same,Activity,[7],82%
same,Activity,[8],102%
same,Activity,[9],103%
same,Activity,[10],106%
same,Activity,[11],79%
same,Activity,[12],100%
same,Activity,[13],18%
same,Activity,[14],101%
same,Activity,[15],96%
same,Activity,[16],101%
same,Activity,[17],88%
same,Activity,[18],93%
same,Activity,[19],93%
same,Activity,[20],52%
same,Activity,[21],101%
C=CCOC(=O)c1cc(-c2ccc(/C=C3/NC(=S)NC3=O)o2)ccc1Cl,Activity,[1],103%
same,Activity,[2],103%
same,Activity,[3],90%
same,Activity,[4],68%
same,Activity,[5],67%
same,Activity,[6],94%
same,Activity,[7],79%
same,Activity,[8],104%
same,Activity,[9],91%
same,Activity,[10],95%
same,Activity,[11],102%
same,Activity,[12],79%
same,Activity,[13],28%
same,Activity,[14],99%
same,Activity,[15],107%
same,Activity,[16],108%
same,Activity,[17],96%
same,Activity,[18],82%
same,Activity,[19],106%
same,Activity,[20],73%
same,Activity,[21],103%
